Here are results for 1 compound from publication PMC5472428 (Drug Design, Development and Therapy, 2017).

For series [1] the following is noted: poor aqueous solubility and good permeability; cited from earlier work.
Series [2] in a line: Pharmacokinetic studies in rabbits. The class given is in vivo. The following applies: Albino, rabbit, plasma, po, 1 mg/kg.

On to `CC(C)(C)NC(=O)[C@H]1CC[C@H]2[C@@H]3CC[C@H]4NC(=O)C=C[C@]4(C)[C@H]3CC[C@]12C` [FIN, (5alpha,17beta)-(1,1-dimethylethyl)-3-oxo-4-azaandrost-1-ene-17-carboxamide], for which the “Biopharmaceutics Classification System (BCS) class” value in series [1] was “Class II”. Moreover, in series [2], the AUC is 0.782 ± 0.0937 µg·h/mL, the Cmax is 0.0393 ± 0.00992 µg/mL, the Tmax stood at 3.5 ± 0.37 h and the half-life is 11 ± 2.17 h. In addition, the k el in series [2] was 1.72e-05 s⁻¹.
